What all share (format): in vivo
Data set [1] relates to equilibrium sodium-potassium. The data set can be described thus: mineralocorticoid effects in the adrenalectomized rats. The settings on record: at doses which provide the same pharmacological effect, vs prednisolone or hydrocortisone hemisuccinate.
The subject of data set [2] is carrageenin-induced oedema. As to the kind of experiment: carrageenin-induced oedema test in rats (i.v.). In general terms: The carrageenan paw model is a standard test of acute inflammation.
Another data set deals with anaphylactic shock. The data set can be described thus: protection against anaphylactic shock in mice. The settings on record: Mus musculus, ip. The source says: (§1) In the protection against anaphylactic shock and endotoxin shock in mice, the following results have been obtained: […]
In a further data set the test system is endotoxin shock. As to the kind of experiment: protection against endotoxin shock in mice. The conditions noted are these: Mus musculus, sc.
Text: as §1

For data set [3], the system named is hepatic neoglycogenetic activity. The data set can be described thus: hepatic neoglycogenetic activity in adrenalectomized rats.
For a further data set, the system named is Nystatin-induced oedema. The data set can be described thus: Nystatin-induced oedema test (i.v.). The settings on record: antiinflammatory equivalent doses, at the 48th, 72nd, and 96th hours, vs prednisolone hemisuccinate and hydrocortisone hemisuccinate.
The mark [4] stands for this setting: relative to hydrocortisone hemisuccinate.
Where [5] appears, read: relative to prednisolone hemisuccinate.

With `CC1=NC2(C(=O)COC(=O)CCC(=O)O)C(CC3C4CCC5=CC(=O)C=CC5(C)C4C(O)CC32C)O1` (stereo not drawn) [Deflazacort hemisuccinate, 11β,21-dihydroxy-2'-methyl-5'H-pregna-1,4-dieno[17,16-d]oxazole-3,20-dione-21-hemisuccinate], the “mineralocorticoid effects (effect on equilibrium sodium-potassium)” value in data set [1] was “affects the equilibrium sodium-potassium much less than prednisolone or hydrocortisone hemisuccinate”. Besides, the “times more active than hydrocortisone hemisuccinate” value in data set [2] (setting [4]) is reported as 142 times. Moreover, the “times more active than prednisolone hemisuccinate” value in data set [2] (setting [5]) stood at 15 times. For the same compound, the results for the ED50 in the data set on anaphylactic shock and in the data set on endotoxin shock were 22 mg/kg and 31 mg/kg, respectively. Also, the “hepatic neoglycogenetic activity, times more potent than hydrocortisone hemisuccinate” value in data set [3] (setting [4]) is recorded as roughly 40 times. In data set [3] (setting [5]), the “hepatic neoglycogenetic activity, times more potent than prednisolone hemisuccinate” value was “about 5 times”. In addition, the “duration of antiphlogistic activity versus reference compounds” value in the data set on Nystatin-induced oedema is “longer lasting antiphlogistic activity than the reference compounds”.

For `CC12CCC(=O)C=C1CCC1C2C(O)CC2(C)C1CCC2(O)C(=O)COC(=O)CCC(=O)O` (stereo not drawn) [Hydrocortisone hemisuccinate, hydrocortisone hemisuccinate], the ED50 was found to be 143 mg/kg in the data set on anaphylactic shock and 180 mg/kg in the data set with endotoxin shock.

For `C[C@]12C=CC(=O)C=C1CC[C@@H]1[C@@H]2[C@@H](O)C[C@@]2(C)[C@H]1CC[C@]2(O)C(=O)COC(=O)CCC(=O)O` [Prednisolone hemisuccinate, prednisolone hemisuccinate], the ED50 turned out to be 35.5 mg/kg in the data set on anaphylactic shock and 50.5 mg/kg in the data set on endotoxin shock.

The term ED50 denotes the midpoint of the dose-response relation.
